# Measured values as given in ChEMBL document CHEMBL1158090, “Cytotoxic cycloartane triterpene saponins from Actaea asiatica” (J Nat Prod, 2006).
# The source made the active and inactive calls. The rule behind the calls is not given here.
# Experiments:
# Type in all cases: functional, cell-based
# MCF7 = experiment: Cytotoxicity against human MCF7 cells
# HepG2 = experiment: (§1) Cytotoxicity against human Hep G2 cells
# [1] = as §1; conditions: HepG2
SMILES,Activity (MCF7),Activity (HepG2),IC50 (MCF7),IC50 [1]
C[C@@H]1C[C@]2(OCC[C@]3(C)O[C@H]23)O[C@H]2C[C@@]3(C)C4=CC[C@H]5C(C)(C)[C@@H](O[C@@H]6OC[C@@H](O)[C@H](O)[C@H]6O)CC[C@@]56C[C@@]46CC[C@]3(C)[C@@H]12,inactive,inactive,–,–
CC(=O)O[C@@H]1C[C@@]23C[C@@]24CC[C@H](O[C@@H]2OC[C@@H](O)[C@H](O)[C@H]2O)C(C)(C)[C@@H]4CC[C@H]3[C@]2(C)C[C@@H]3OC(C(=O)C(C)C)=C[C@@H](C)[C@@H]3[C@@]12C [ASIATICOSIDE A],–,–,9.78 µM,9.9 µM
CC(=O)O[C@@H]1C[C@@]23C[C@@]24CC[C@H](O[C@@H]2OC[C@@H](O)[C@H](O)[C@H]2O)C(C)(C)[C@@H]4CC=C3[C@]2(C)C[C@@H]3OC(C(=O)C(C)C)=C[C@@H](C)[C@@H]3[C@@]12C [ASIATICOSIDE B],–,–,8.32 µM,9.74 µM
